Laboratory results taken from PMC7044277 (Nature Communications, 2020).

Legend:
[1] = molecular target: DRD2 (D2 long receptor) wild-type (Homo sapiens, UniProt P14416); experiment: Radioligand competition binding, [3H]-N-methylspiperone, HEK293T membranes; settings: Ki
[2] = molecular target: DRD3 wild-type (Homo sapiens, UniProt P35462); experiment: Radioligand competition binding, [3H]-N-methylspiperone
[3] = molecular target: T1, DRD4 (D4.4 variant) wild-type (Homo sapiens, UniProt P21917); experiment: as above; settings: Ki
T1 sequence (P21917 1-419): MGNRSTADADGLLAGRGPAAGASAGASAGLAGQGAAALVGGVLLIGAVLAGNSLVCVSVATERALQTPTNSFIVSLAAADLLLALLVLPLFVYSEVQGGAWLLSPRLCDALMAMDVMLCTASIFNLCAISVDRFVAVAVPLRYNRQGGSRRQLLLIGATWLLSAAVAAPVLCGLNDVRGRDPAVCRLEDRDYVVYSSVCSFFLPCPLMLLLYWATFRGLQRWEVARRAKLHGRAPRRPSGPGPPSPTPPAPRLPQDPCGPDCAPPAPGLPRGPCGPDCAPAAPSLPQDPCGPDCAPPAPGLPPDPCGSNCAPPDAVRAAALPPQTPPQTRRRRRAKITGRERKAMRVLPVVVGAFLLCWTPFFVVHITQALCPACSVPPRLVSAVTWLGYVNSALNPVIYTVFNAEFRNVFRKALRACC

[4] = molecular target: T2, DRD2 (D2 long receptor) (Homo sapiens, UniProt P14416); experiment: Gαi/o-mediated cAMP inhibition (GloSensor split-luciferase cAMP reporter), HEK293T; format: cell-based;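 note: compounds applied 15 min at room temperature, then luciferin plus 400 nM isoproterenol to raise cAMP through endogenous β2-adrenergic receptors, luminescence read 15 min later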
[5] = molecular target: T3, DRD3 (Homo sapiens, UniProt P35462); experiment: Gαi/o-mediated cAMP inhibition (GloSensor); format: cell-based
[6] = molecular target: T4, DRD4 (D4.4 variant) (Homo sapiens, UniProt P21917); experiment: Gαi/o-mediated cAMP inhibition (GloSensor); format: cell-based
T4 sequence (P21917 1-419): T1 sequence (P21917 1-419)

[7] = molecular target: T5, DRD2 S1975.46G (Homo sapiens, UniProt P14416, S197G); experiment: Gαi/o-mediated cAMP inhibition (GloSensor), mutant; format: cell-based; settings: DRD2 Ser197^5.46Gly; G-protein assay
T5 construct: expressed in transfected cells; host or cells: HEK293T (ATCC CRL-11268)

[8] = molecular target: T2, DRD2 (D2 long receptor); experiment: β-arrestin2 recruitment (Tango), HTLA cells; format: cell-based
[9] = molecular target: T3, DRD3; experiment: β-arrestin2 recruitment (Tango); format: cell-based
[10] = molecular target: T4, DRD4 (D4.4 variant); experiment: β-arrestin2 recruitment (Tango); format: cell-based
[11] = read-out: Emax relative to quinpirole response

T3 sequence (P35462 whole entry): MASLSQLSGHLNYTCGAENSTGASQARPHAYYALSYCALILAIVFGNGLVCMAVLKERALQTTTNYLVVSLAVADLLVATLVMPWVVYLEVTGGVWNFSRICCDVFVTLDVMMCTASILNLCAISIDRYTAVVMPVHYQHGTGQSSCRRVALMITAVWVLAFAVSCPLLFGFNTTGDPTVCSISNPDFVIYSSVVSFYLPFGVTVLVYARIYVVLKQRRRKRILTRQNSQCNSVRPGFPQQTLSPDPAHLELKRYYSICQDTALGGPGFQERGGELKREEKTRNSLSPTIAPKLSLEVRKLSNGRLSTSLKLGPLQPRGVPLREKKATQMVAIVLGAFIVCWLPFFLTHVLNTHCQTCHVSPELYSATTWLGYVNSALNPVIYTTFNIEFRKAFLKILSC
T2 sequence (P14416 whole entry): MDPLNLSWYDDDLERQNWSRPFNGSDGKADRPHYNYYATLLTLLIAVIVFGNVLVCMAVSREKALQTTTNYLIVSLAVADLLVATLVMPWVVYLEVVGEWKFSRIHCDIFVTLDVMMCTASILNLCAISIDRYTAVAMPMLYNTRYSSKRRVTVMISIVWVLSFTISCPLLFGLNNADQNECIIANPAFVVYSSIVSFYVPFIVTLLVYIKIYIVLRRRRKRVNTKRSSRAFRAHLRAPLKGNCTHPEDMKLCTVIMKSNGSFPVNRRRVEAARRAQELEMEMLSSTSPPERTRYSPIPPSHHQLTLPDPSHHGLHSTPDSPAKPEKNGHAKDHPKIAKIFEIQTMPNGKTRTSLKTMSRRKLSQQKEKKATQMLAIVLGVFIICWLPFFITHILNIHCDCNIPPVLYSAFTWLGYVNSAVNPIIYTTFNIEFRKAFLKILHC
Sequence of DRD3 wild-type (P35462 whole entry): as the sequence (P35462 whole entry) above
T5 sequence (P14416 whole entry S197G): as the sequence (P14416 whole entry) above, with S197G counted along it
Sequence of DRD2 (D2 long receptor) wild-type (P14416 whole entry): as the sequence (P14416 whole entry) above

In the case of CC(CCc1ccccc1[N+](=O)[O-])NCC1(O)CCCCC1 (stereo not shown) [O7LE6], the Ki [1] is reported as 1410 nM, the Ki [2] is reported as 174 nM and the Ki [3] is reported as > 10000 nM. It also gave an EC50 [4] of 1.13 nM, an Emax ([4]; HEK-293T, read-out: Emax relative to quinpirole response) of 100% and an EC50 [5] of 1.96 nM. For the same molecule, the Emax [5, 11] was 82.7%, the EC50 [6] was > 10000 nM and the “G protein agonist activity” value ([6]; DRD4, cAMP inhibition) was “no DRD4 activity”. For the same molecule, the “agonism after serine to glycine substitution” value [7] was “substantially diminished”, the EC50 [8] was 6.95 nM and the Emax ([8]; HTLA, read-out: Emax relative to quinpirole response) was 85.3%. For the same molecule, the EC50 [9] was 117 nM, the Emax [9, 11] was 88.5% and the EC50 [10] was > 10000 nM. The “β-arrestin2 recruitment agonist activity” value ([10]; DRD4, Tango) was “no DRD4 activity”.
